# Assay results from patent publication US11396503B2, “Sulfonyl substituted bicyclic compound which acts as ROR inhibitor” (CHIA TAI TIANQING PHARMACEUTICAL GROUP CO., LTD, priority 2017, dated 2022).
# Molecular target: T1, hRORγt (Homo sapiens, UniProt P51449)
# T1 construct: expressed in transfected cells; host or cells: CHO-S (Chinese hamster ovary cells, Invitrogen R80007), transiently transfected with pM-hRORγt and pG5-luc
# T1 sequence (P51449 1-497 isoform P51449-2): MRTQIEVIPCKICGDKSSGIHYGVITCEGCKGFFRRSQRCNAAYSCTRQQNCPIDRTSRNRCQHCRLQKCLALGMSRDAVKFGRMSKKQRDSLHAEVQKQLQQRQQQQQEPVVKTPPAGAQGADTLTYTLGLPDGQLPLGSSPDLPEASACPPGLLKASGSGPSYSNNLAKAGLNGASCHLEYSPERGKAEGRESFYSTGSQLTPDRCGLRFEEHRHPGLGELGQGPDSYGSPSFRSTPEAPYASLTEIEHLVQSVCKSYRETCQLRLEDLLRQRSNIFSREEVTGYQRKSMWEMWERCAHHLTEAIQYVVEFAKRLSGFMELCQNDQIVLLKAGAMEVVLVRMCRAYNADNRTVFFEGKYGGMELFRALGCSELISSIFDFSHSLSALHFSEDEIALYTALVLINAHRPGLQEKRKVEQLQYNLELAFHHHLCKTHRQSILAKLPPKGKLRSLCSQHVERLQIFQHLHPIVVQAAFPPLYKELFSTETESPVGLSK
# Assay: Luciferase assay (reporter gene, recombinant plasmid hRORγt)
# Format: cell-based
# Settings: CHO-S cells transfected with pM-hRORγt and pG5-luc; overnight culture with compound; ONE-Glo luciferase readout; read-out: RORgt EC50
# Text: This assay method used luciferase as a reporter gene to detect the expression of cells transfected with a gene recombinant plasmid at gene transcription level, wherein the recombinant plasmid was constructed by the promoter of a target gene and a luciferase gene. The experiment was primarily related to the transfection of the recombinant plasmid hRORγt (“RORgt”).
# I. Reagents and Materials:
# 1. Cells: Chinese hamster ovary cells (CHO—S, Invitrogen, Cat #R80007), suspension-cultured in CD-CHO culture medium containing 8 mM L-glutamine and 1×HT.
# a) Luciferase reporter gene plasmid pG5-luc: reporter plasmid (Promega).
# b) Target gene plasmid pM-hRORγt: human RORgamma.
# 4. Transfection reagent: TransIT-CHO transfection kit (Minis Bio Co.) containing Trans-It reagent and Mojo reagent (Minis, MIR2170).
# 7. Luciferase kit: (Promega ONE-Glo, 100 ml, Catalog #E6120): containing luciferase substrate (Coenzyme A, ATP and luciferin) and a reaction buffer.
# II. Specific Experimental Steps
# 1. Cell seeding: 18 to 24 h before transfection, a 125 mL shake flask was charged with CHO—S cells having a concentration of 0.5×10^6 cells/mL to 0.6×10^6 cells/mL, and CD-CHO culture medium (the culture medium only contained L-glutamine and an HT supplement) was added thereto to a final volume of 18 mL. The shake flask was placed on a shaker, and the cells were passaged overnight under a condition of 120 rpm, 37° C. and 8% CO2.
# 2. Cell transfection: At this time, the cell concentration of the above-mentioned solution should be 1.2×10^6 cells/mL to 1.5×10^6 cells/mL. CD-CHO culture medium (containing L-glutamine and an HT supplement) was used for dilution until the cell concentration reached 1×10^6 cells/mL.
# B. Preparation of transfection reagent (TransIT-CHO: Mojo: DNA complex), which was formulated immediately before transfection.
# 1. Trans-IT reagent was warmed to room temperature in advance and shaken to be uniformly mixed before use.
# 2. Preparation for DNA transfection: the following reagents were mixed in a 1.5 mL sterile centrifuge tube:
# 27 μg of luciferase reporter gene plasmid pG5-luc: 27 μL, 1 mg/mL solution,
# 0.75 μg of the expression plasmid of the target gene (pM-hRORγt, 7.5 μL, 0.1 mg/mL solution).
# 3. The following reagents were charged into a 15 mL sterile centrifuge tube:
# 83 μL of TransIT-CHO reagent
# the DNA complex prepared in step 2
# 4. The mixture was mixed well and placed at room temperature for 5 min.
# 5. 13.9 μL of Mojo reagent was charged into a sterile centrifuge tube, mixed slightly, and placed at room temperature for 20 min to form a transfection complex.
# 1. A 125 mL shake flask was charged with the transfection complex prepared in step B dropwise while being shaken slowly.
# 2. The cells were cultured for 4 h in a shaker under a condition of 37° C. and 8% carbon dioxide.
# 3. After 4 h, the cells were transferred to a 50 mL sterile centrifuge tube, centrifuged at 1200 rpm for 4 min, and the supernatant was aspirated.
# 4. The cells were re-suspended in 6 mL of a freezing medium (CD-CHO, L-glutamine, HT supplement, and 10% DMSO), and the cell density should be 3×10^6 cells/ml at this time.
# 5. The mixture was dispensed into 12 tubes with 0.5 mL in each tube. The tubes were placed in a refrigerator at −80° C. to be slowly frozen overnight, and then were transferred into liquid nitrogen for long-term storage.
# D. Luciferase activity assay (96-well flat plate)
# 1. The cells were thawed at 37° C.
# 2. The cells (1.5×10^6 cells/0.5 mL) were diluted with 2 mL of freshly formulated culture medium (CD-CHO, L-glutamine and an HT supplement) to a volume of 2.5 mL, and then were transferred to a 15 mL sterile centrifuge tube.
# 3. Cell counting: If the cells were completely viable, a concentration of 6×10^5 cells/mL should be achieved. […] If necessary, the cells were diluted with culture medium.
# 4. Cell seeding: 100 μl cells (4×10^4 cells) were added to each well.
row,Structure (SMILES),EC50
1,CCc1ccc2c(c1)CCC(C)N2S(=O)(=O)c1ccc(OCC2CCOCC2)c(CO)c1 (centres unmarked),23600 pM
2,C=C(C)c1ccc2c(c1)CCC(CC)N2S(=O)(=O)c1ccc(OCC2CCOCC2)c(CO)c1 (centres unmarked),12000 pM
3,CCc1ccc2c(c1)CCCN2S(=O)(=O)c1ccc(OCC2CCOCC2)c(CO)c1,858000 pM
4,CCc1ccc2c(c1)CC[C@@H](C)N2S(=O)(=O)c1ccc(OCC2CCOCC2)c(CO)c1,218000 pM
5,CCc1ccc2c(c1)CC[C@H](C)N2S(=O)(=O)c1ccc(OCC2CCOCC2)c(CO)c1,25000 pM
6,CCc1ccc2c(c1)CC(C)CN2S(=O)(=O)c1ccc(OCC2CCOCC2)c(CO)c1 (centres unmarked),36000 pM
7,CCc1ccc2c(c1)C(C)CN2S(=O)(=O)c1ccc(OCC2CCOCC2)c(CO)c1 (centres unmarked),1.4e+06 pM
8,CCc1ccc2c(c1)CCN2S(=O)(=O)c1ccc(OCC2CCOCC2)c(CO)c1,2.63e+06 pM
9,CC1CCc2cc(C(F)(F)F)ccc2N1S(=O)(=O)c1ccc(OCC2CCOCC2)c(CO)c1 (centres unmarked),15000 pM
10,CC(C)c1ccc2c(c1)CCC(C)N2S(=O)(=O)c1ccc(OCC2CCOCC2)c(CO)c1 (centres unmarked),14900 pM
11,CCc1ccc2c(c1)CCC(CC)N2S(=O)(=O)c1ccc(OCC2CCOCC2)c(S(C)(=O)=O)c1 (centres unmarked),1.86e+06 pM
12,CCc1ccc2c(c1)CCC(CC)N2S(=O)(=O)c1ccc(OCC2CCOCC2)c(CO)n1 (centres unmarked),212000 pM
13,CCc1ccc2c(c1)CCC(CC)N2S(=O)(=O)c1ccc(OCC2CCOCC2)c(S(N)(=O)=O)c1 (centres unmarked),576000 pM
14,C=Cc1ccc2c(c1)CCC(CC)N2S(=O)(=O)c1ccc(OCC2CCOCC2)c(CO)c1 (centres unmarked),35500 pM
15,CCc1ccc2c(c1F)CCC(CC)N2S(=O)(=O)c1ccc(OCC2CCOCC2)c(CO)c1 (centres unmarked),13600 pM
16,[2H]C([2H])(O)c1cc(S(=O)(=O)N2c3ccc(C(C)C)cc3CCC2CC)ccc1OCC1CCOCC1 (centres unmarked),11500 pM
17,CCC1CCc2cc(C(C)(F)F)ccc2N1S(=O)(=O)c1ccc(OCC2CCOCC2)c(CO)c1 (centres unmarked),15600 pM
18,CCc1ccc2c(c1)CCC(C(F)(F)F)N2S(=O)(=O)c1ccc(OCC2CCOCC2)c(CO)c1 (centres unmarked),23000 pM
19,CCc1ccc2c(c1)C(C)CCN2S(=O)(=O)c1ccc(OCC2CCOCC2)c(CO)c1 (centres unmarked),655000 pM
20,CCCc1ccc2c(c1)CCC(C)N2S(=O)(=O)c1ccc(OCC2CCOCC2)c(CO)c1 (centres unmarked),17900 pM
21,CCc1ccc2c(c1)CCC(CC)N2S(=O)(=O)c1ccc(OCC2CCOCC2)c(CO)c1 (centres unmarked),11000 pM
22,CC1CCc2cc(C#N)ccc2N1S(=O)(=O)c1ccc(OCC2CCOCC2)c(CO)c1 (centres unmarked),689000 pM
23,CCc1cc(F)c2c(c1)CC[C@H](C)N2S(=O)(=O)c1ccc(OCC2CCOCC2)c(CO)c1,151000 pM
24,CCC1CCc2cc(CC(F)(F)F)ccc2N1S(=O)(=O)c1ccc(OCC2CCOCC2)c(CO)c1 (centres unmarked),23000 pM
25,CC1CCc2cc(C3CC3)ccc2N1S(=O)(=O)c1ccc(OCC2CCOCC2)c(CO)c1 (centres unmarked),20700 pM
26,CCc1ccc2c(c1)CC(CC)CN2S(=O)(=O)c1ccc(OCC2CCOCC2)c(CO)c1 (centres unmarked),31600 pM
27,CCc1ccc2c(c1)CCC(C)(C)N2S(=O)(=O)c1ccc(OCC2CCOCC2)c(CO)c1,310000 pM

row,Structure (SMILES),EC50
1,CCc1cc2c(cc1F)N(S(=O)(=O)c1ccc(OCC3CCOCC3)c(CO)c1)[C@@H](C)CC2,96500 pM
2,CC[C@@H]1CCc2cc(C(C)C)ccc2N1S(=O)(=O)c1ccc(OCC2CCOCC2)c(CO)c1,48000 pM
3,CCc1ccc2c(c1)CC[C@@H](CC)N2S(=O)(=O)c1ccc(OCC2CCOCC2)c(CO)c1,4200 pM
4,CCc1ccc2c(c1)CCC(CC)N2S(=O)(=O)c1ccc(C(O)CC2CCOCC2)c(CO)c1 (centres unmarked),201000 pM
5,CCc1ccc2c(c1)CCC(C(C)C)N2S(=O)(=O)c1ccc(OCC2CCOCC2)c(CO)c1 (centres unmarked),12400 pM
6,CCC1CCc2cc(C(C)(C)O)ccc2N1S(=O)(=O)c1ccc(OCC2CCOCC2)c(CO)c1 (centres unmarked),1.4e+06 pM
7,CCc1ccc2c(c1)CCC(CC)N2S(=O)(=O)c1ccc(C(CO)N2CCOCC2)c(CO)c1 (centres unmarked),3.12e+06 pM
8,CCc1ccc2c(c1)CCC(CC)N2S(=O)(=O)c1ccc(C(O)CN2CCOCC2)c(CO)c1 (centres unmarked),595000 pM
9,CCc1ccc2c(c1)CC[C@H](CC)N2S(=O)(=O)c1ccc(OCC2CCOCC2)c(CO)c1,34900 pM
10,CC[C@H]1CCc2cc(C(C)C)ccc2N1S(=O)(=O)c1ccc(OCC2CCOCC2)c(CO)c1,6800 pM
11,C[C@H]1CCc2ccc(C(F)(F)F)cc2N1S(=O)(=O)c1ccc(OCC2CCOCC2)c(CO)c1,330000 pM
12,CC[C@@H]1CCc2cc(C3CCC3)ccc2N1S(=O)(=O)c1ccc(OCC2CCOCC2)c(CO)c1,5200 pM
13,CCC1CCc2cc(C(F)(F)F)ccc2N1S(=O)(=O)c1ccc(OCC2CCOCC2)c(CO)c1 (centres unmarked),21100 pM
14,CCC1CCc2cc(C(C)(C)C)ccc2N1S(=O)(=O)c1ccc(OCC2CCOCC2)c(CO)c1 (centres unmarked),70200 pM
15,CC[C@@H]1CCc2cc(C(F)(F)F)ccc2N1S(=O)(=O)c1ccc(OCC2CCOCC2)c(CO)c1,5400 pM
16,CCc1ccc2c(c1)CCC(C1CC1)N2S(=O)(=O)c1ccc(OCC2CCOCC2)c(CO)c1 (centres unmarked),7000 pM
17,CCC1CCc2cc(C3CCC3)ccc2N1S(=O)(=O)c1ccc(OCC2CCOCC2)c(CO)c1 (centres unmarked),5500 pM
18,CC[C@@H]1CCc2cc(C(C)(F)F)ccc2N1S(=O)(=O)c1ccc(OCC2CCOCC2)c(CO)c1,10000 pM
19,CCc1ccc2c(c1)CCC(CC(C)C)N2S(=O)(=O)c1ccc(OCC2CCOCC2)c(CO)c1 (centres unmarked),21000 pM
20,CCc1ccc2c(c1)CCC(CC)N2S(=O)(=O)c1ccc(OCC2CCS(=O)(=O)CC2)c(CO)c1 (centres unmarked),146000 pM
21,C[C@H]1CCc2cc(C(C)(F)F)ccc2N1S(=O)(=O)c1ccc(OCC2CCOCC2)c(CO)c1,181000 pM
22,CCc1ccc2c(c1)C[C@@H](O)[C@H](C)N2S(=O)(=O)c1ccc(OCC2CCOCC2)c(CO)c1,803000 pM
23,CCc1ccc2c(c1)CC[C@@H](C1CC1)N2S(=O)(=O)c1ccc(OCC2CCOCC2)c(CO)c1,3200 pM
24,Cc1cc(C)c2c(c1)CCC(C1CC1)N2S(=O)(=O)c1ccc(OCC2CCOCC2)c(CO)c1 (centres unmarked),18000 pM
25,CCc1ccc2c(c1)CCC(C1CCC1)N2S(=O)(=O)c1ccc(OCC2CCOCC2)c(CO)c1 (centres unmarked),8100 pM
26,CC(C)c1ccc2c(c1)CCC(C1CC1)N2S(=O)(=O)c1ccc(OCC2CCOCC2)c(CO)c1 (centres unmarked),6600 pM
